How the values were obtained:
[1] = test system: primary cultured spinal cord astrocytes; assay: BDNF expression in cultured astrocytes (qPCR, Western blot); assay type: cell-based, mouse
APP/PS1 transgenic mice [2] = assay: Cognitive tests in APP/PS1 transgenic mice; assay type: in vivo, mouse; details: 4-week repeated dosing test
[3] = similar drugs; ref ZELAPAR®, XADAGO®; cited from earlier work
APP/PS1 transgenic mice [4] = assay: Tonic GABA current, neuronal firing and DAO compensation in APP/PS1 mice; assay type: in vivo, mouse; details: 4-week repeated dosing test

Row | Structure (SMILES) | mRNA expression level of BDNF ([1]; GABA 100 μM, 24 h) | proBDNF expression (Western blotting) ([1]; GABA-treated) | cognitive function (APP/PS1 transgenic mice [2]) | Tmax [3] [min] | neuronal firing (APP/PS1 transgenic mice [4]; 2nd week) | neuronal firing (APP/PS1 transgenic mice [4]; 4th week)
1 | NCCCC(=O)O [GABA, γ-aminobutyric acid] | significantly downregulated | reduction |  |  |  | 
2 | C#CCN(C)[C@H](C)Cc1ccccc1 [selegiline, reference compound] |  |  | cognitive function decline | 45 | started to decrease | completely lost

Reference: paper PMC12423301, “Astrocytic monoamine oxidase B (MAOB)–gamma-aminobutyric acid (GABA) axis as a molecular brake on repair following spinal cord injury” (Signal Transduction and Targeted Therapy, 2025)
